What was measured:
lymphocytes = settings: in vivo; cited from earlier work
cytokine production = settings: in vivo; cited from earlier work
EG7 (OVA-expressing EL4) = format: in vivo, mouse (C57BL/6NCrj); settings: with peptide vaccine; EG7 transplanted 21 days after peptide administration; followed to day 28; compared with PBS; FIG. 5
Experimental: Twenty-one days after peptide administration, 5×10^6 EG7 (OVA-expressing EL4: ATCC) suspended in 100 μL PBS was intradermally transplanted at the right flank using a 27 G injection needle after shaving. Tumor diameters (minimum diameter, maximum diameter) were measured using electronic calipers twice a week from 1 week to 28 days after EG7 transplantation, and tumor volumes were calculated.

Compound	time at which the reduction in lymphocytes reaches a peak (lymphocytes) [days]	time from which cytokine production is exhibited after administration (cytokine production) [h]	tumor growth suppression (tumor volume) (EG7 (OVA-expressing EL4))
O=P1(N(CCCl)CCCl)NCCCO1 (stereo not drawn) [cyclophosphamide]	3 to 4	–	–
CCOCc1nc2c(N)nc3ccccc3c2n1CC(C)(C)O [R848]	–	≥ 1	a slight suppression against proliferation was observed

Source: patent US20090285834A1, “NOVEL MEMORY CTL INDUCTION POTENTIATOR” (DAINIPPON SUMITOMO PHARMA CO., LTD., priority 2005, published 2009)
